Reference: patent publication US8765779B2, “Tricyclic derivatives and their pharmaceutical use and compositions” (Cephalon, Inc., priority 2009, dated 2014)
pKi: −log10 of the molar value. Structures can show the parent of a compound that is named as a salt.

Biological target: T1, human 5-HT6 receptor (Homo sapiens, UniProt P50406)
T1 construct: host or cells: CHO-K1 cells, stably transfected; membranes prepared in house
Test: Human 5-HT6 Receptor Binding Assay ([3H]LSD displacement, scintillation beads)
Settings: membranes of CHO-K1 cells with recombinant human 5-HT6, 4 nM [3H]LSD; Table 1, class symbols; read-out: h5-HT6 (Ki)
Experimental: Human 5-HT6 Receptor Binding Assay
Membranes were prepared from CHO—K1 cells stably transfected with the human 5-HT6 receptor (Euroscreen; ES-316-C). The cells were grown in Gibco Advanced DMEM-F12 (Cat#12634010) containing 2% dialyzed FBS (Hyclone Cat#SH30079.03). The cells were harvested in phosphate buffered saline (PBS) containing 0.1 mM EDTA and pelleted by centrifugation (1000×g), the supernatant was discarded and the pellets were stored at −80° C. prior to membrane preparation. Membranes were prepared as previously described (J Bio Chem. 1992, 267 (14) 9844-51). Briefly, frozen cell pellet was resuspended in a lysis buffer containing 5 mM Tris-HCl (pH 7.5), 5 mM EDTA and 1 complete EDTA-free protease inhibitor tablet (Roche Applied Science, Indianapolis, Ind.) per 50 mL buffer, and homogenized with a tissue homogenizer. The cell lysate was then centrifuged at 40,000×g for 30 min at 4° C. to collect the membranes. The membrane pellets were washed in membrane buffer (50 mM Tris-HCl (pH 7.5), 0.6 mM EDTA, 5 mM MgCl2, 1 complete EDTA-free protease inhibitor tablet per 50 mL buffer) using a tissue homogenizer. The membranes were centrifuged at 40,000×g for 30 min at 4° C. and the pellets were resuspended in membrane buffer containing 250 mM sucrose, and protein concentration was determined using the Coomassie Plus kit (Pierce Biotechnology, Rockford, Ill.).
Membranes prepared from cells expressing recombinant human 5-HT6 receptor (h5-HT6) were resuspended in assay buffer containing 50 mM Tris HCl, (pH7.4), 4 mM CaCl2, 10 μg/mL saponin, and 0.1% (w/v) ascorbic acid. Membranes were preincubated using 1.75 μg membrane protein and 0.25 mg FlashBlue scintillation beads (PerkinElmer catalogue #FB001) per well at 4° for 30 min. […] Test compounds or assay controls for total and non-specific binding were diluted in DMSO as 100× solutions and serially diluted by half log concentrations on a Perkin Elmer JANUS Automated Workstation. Serotonin (10 μM final concentration) was used to determine non-specific binding in the assay. Plates were read using the Microbeta Trilux 1450 LSC and luminescence counter. Data were analyzed by nonlinear […] using the dose-response equation (variable slope) to calculate IC50 in XLfit4 (ID Business Solutions Inc.): y=(Bottom+((Top−Bottom)/(1+((IC50/x)^Hill slope))))
Ki value was then calculated according to the Cheng-Prusoff method using the equation below (Cheng and Prusoff, 1973): Ki,app=IC50/(1+[radioligand]/Kd))

T1 sequence (P50406 whole entry): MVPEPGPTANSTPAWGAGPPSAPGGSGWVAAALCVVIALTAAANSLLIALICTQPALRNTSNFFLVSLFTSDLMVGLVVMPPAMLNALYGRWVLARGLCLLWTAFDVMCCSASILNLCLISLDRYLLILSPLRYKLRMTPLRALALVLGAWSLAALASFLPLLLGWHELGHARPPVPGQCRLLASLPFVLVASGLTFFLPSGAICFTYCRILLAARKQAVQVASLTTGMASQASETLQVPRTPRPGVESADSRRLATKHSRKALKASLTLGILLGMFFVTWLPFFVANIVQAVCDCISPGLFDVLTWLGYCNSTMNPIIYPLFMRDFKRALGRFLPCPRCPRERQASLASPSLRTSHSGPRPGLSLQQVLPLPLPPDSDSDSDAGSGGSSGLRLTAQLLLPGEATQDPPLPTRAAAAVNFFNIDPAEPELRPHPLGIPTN

| Structure (SMILES) | pKi |
| --- | --- |
| CC1(C(F)F)NCCc2c1oc1cc(S(=O)(=O)c3cccc(F)c3F)ccc21 (single isomer, unassigned; enantiomer 1) [Example 471, 1-(Difluoromethyl)-7-[(2,3-difluorophenyl)sulfonyl]-1-methyl-1,2,3,4-tetrahydro[1]benzofuro[2,3-c]pyridine, enantiomer 1] | > 6.30 |
| O=S(=O)(Oc1ccc2c(c1)C1CCNCC1O2)c1cccc2cnccc12 (centres unmarked) [Example 745] | < 6.00 |
| COCC1(C)NCCc2c1oc1cc(S(=O)(=O)c3cccc(F)c3)ccc21 (racemic) [Example 49, 7-[(3-fluorophenyl)sulfonyl]-1-(methoxymethyl)-1-methyl-1,2,3,4-tetrahydro[1]benzofuro[2,3-c]pyridine] | > 6.30 |
| COc1cc(S(=O)(=O)c2ccc3c4c(oc3c2)C(C)(C)NCC4)c[n+]([O-])c1 [Example 369] | < 6.00 |
| O=S(=O)(c1ccccc1)c1ccc2oc3c(c2c1)CCNC3 [Example 348] | > 6.30 |
| O=S(=O)(c1ccc2c(c1)OC1CNCCC21)c1ccc(Cl)c(C(F)(F)F)c1 (centres unmarked) [Example 148] | > 6.30 |
| CC1NCCc2c1oc1cc(S(=O)(=O)c3cccc(C(F)(F)F)c3)ccc21 (centres unmarked) [Example 237] | > 6.30 |
| N#Cc1ccccc1COc1cccc(S(=O)(=O)c2ccc3c(c2)OC2CNCCC32)c1 (centres unmarked) [Example 550] | 6.00 to 6.30 |
| COCC1NCCc2c1oc1cc(S(=O)(=O)c3cccc(Cl)c3)ccc21 (centres unmarked) [Example 502] | > 6.30 |
| O=S(=O)(c1cccc(OC(F)(F)F)c1)c1ccc2c3c(oc2c1)C1(CCOCC1)NCC3 [Example 300, 7-{[3-(trifluoromethoxy)phenyl]sulfo-nyl}-2′,3,3′,4,5′,6′-hexahydro-2H-spiro[1-benzofuro[2,3-c]pyridine-1,4′-pyran]] | > 6.30 |
| O=S(=O)(c1cccc(F)c1)c1ccc2oc3c(c2c1)CCNC3 [Example 244, 6-[(3-fluorophenyl)sulfonyl]-1,2,3,4-tetrahydro[1]benzofuro[2,3-c]pyridine] | > 6.30 |
| O=S(=O)(c1cccc(Cl)c1)c1ccc2c3c(oc2c1)C(CCBr)NCC3 (centres unmarked) [Example 501, 1-(2-bromoethyl)-7-[(3-chlorophenyl)sulfonyl]-1,2,3,4-tetrahydro[1]benzofuro[2,3-c]pyridine] | > 6.30 |
| O=S(=O)(c1cccc(OCc2ccncc2)c1)c1ccc2c(c1)OC1CNCCC21 (centres unmarked) [Example 561] | > 6.30 |
| Cc1ccnc(S(=O)(=O)c2ccc3c(c2)OC2CNCCC32C)n1 (racemic) [Example 7, 4a-methyl-7-[(4-methylpyrimidin-2-yl)sulfonyl]-1,2,3,4,4a,9a-hexahydro[1]benzofuro[2,3-c]pyridine] | < 6.00 |
| [O-][S+](c1ccc2oc3c(c2c1)CCNC3)c1cccnc1F (centres unmarked) [Example 444] | < 6.00 |
| O=S(=O)(Oc1ccc2c(c1)OC1CNCCC21)c1c(Cl)nc2sccn12 (centres unmarked) [Example 638] | > 6.30 |
| CC(C)Oc1cc(F)cc(S(=O)(=O)c2ccc3c(c2)OC2CNCCC32C)c1 (centres unmarked) [Example 427] | > 6.30 |
| O=S(=O)(c1cccc(Cl)c1)c1ccc2c3c(oc2c1)CNCC3 [Example 340, 7-[(3-chlorophenyl)sulfonyl]-1,2,3,4-tetrahydro[1]benzofuro[2,3-c]pyridine] | > 6.30 |
| O=S(=O)(c1ccc2c(c1)OC1CNCCC21)c1cccc(F)c1F (centres unmarked) [Example 399] | > 6.30 |
| O=S(=O)(Nc1ccc2c(c1)C1CCNCC1O2)c1cccc(Cl)c1Cl (centres unmarked) [Example 829] | > 6.30 |
| CC1(C)NCCc2c1oc1cc(S(=O)(=O)c3ccc(N4CCCC4)nc3)ccc21 [Example 380] | < 6.00 |
| CC1(C)NCCc2c1oc1cc(S(=O)(=O)c3cccc(C(F)(F)F)c3)ccc21 [Example 289] | > 6.30 |
| O=S(=O)(c1ccc2c(c1)OC1CNCCC21)c1cccc2c1CCO2 (centres unmarked) [Example 405] | 6.00 to 6.30 |
| COc1ccc(S(=O)(=O)c2ccc3c(c2)OC2CNCCC32C)cc1 (racemic) [Example 5, 7-[(4-methoxyphenyl)sulfonyl]-4a-methyl-1,2,3,4,4a,9a-hexahydro[1]benzofuro[2,3-c]pyridine] | 6.00 to 6.30 |

| Structure (SMILES) | pKi |
| --- | --- |
| O=S(=O)(Oc1ccc2c(c1)OC1CNCCC21)c1cccc2cnccc12 (centres unmarked) [Example 684] | 6.00 to 6.30 |
| CC(C)COc1cc(F)cc(S(=O)(=O)c2ccc3c(c2)OC2CNCCC32)c1 (centres unmarked) [Example 402] | > 6.30 |
| COCC1NCCc2c1oc1cc(S(=O)(=O)c3cccc(F)c3)ccc21 (centres unmarked) [Example 498] | > 6.30 |
| CC12CCN(C3CCCC3)CC1Oc1ccc(OS(=O)(=O)Cc3ccccc3)cc12 (centres unmarked) [Example 806] | < 6.00 |
| Cc1ccc(S(=O)(=O)c2ccc3c(c2)OC2CNCCC32)cc1 (centres unmarked) [Example 121] | > 6.30 |
| O=S(=O)(c1cc(F)cc(F)c1)c1ccc2c3c(oc2c1)CNCC3 [Example 107, 7-(3,5-Difluoro-benzenesulfonyl)-1,2,3,4-tetrahydro-benzo[4,5]furo[2,3-c]pyridine hydrochloride] | > 6.30 |
| O=S(=O)(Oc1ccc2c(c1)C1CCNCC1O2)c1cccc(Cl)c1 (centres unmarked) [Example 710] | > 6.30 |
| O=S(=O)(c1ccc2c(c1)OCCO2)c1ccc2c(c1)OC1CNCCC21 (centres unmarked) [Example 119] | > 6.30 |
| O=S(=O)(c1ccc2c(c1)OC1CNCCC21)c1cccc2c1CCO2 (centres unmarked) [Example 418] | > 6.30 |
| CC(C)(C)c1ccc(S(=O)(=O)Oc2ccc3c(c2)C2CCNCC2O3)cc1 (centres unmarked) [Example 727] | 6.00 to 6.30 |
| CC(C)Oc1cccc(S(=O)(=O)c2ccc3c(c2)OC2CNCCC32)c1 (centres unmarked) [Example 136] | > 6.30 |
| O=S(=O)(Oc1ccc2c(c1)OC1CNCCC21)c1ccc(N2CCOCC2)nc1 (centres unmarked) [Example 683] | 6.00 to 6.30 |
| CC(=O)N(C)CC1NCCc2c1oc1cc(S(=O)(=O)c3cccc(Cl)c3)ccc21 (racemic) [Example 541, N-({7-[(3-chlorophenyl)sulfonyl]-1,2,3,4-tetrahydro[1]benzofuro[2,3-c]pyridin-1-yl}methyl)-N-methylacetamide] | > 6.30 |
| O=S(=O)(Nc1cccc(F)c1)c1ccc2c(c1)C1CCNCC1O2 (centres unmarked) [Example 846] | < 6.00 |
| O=S(=O)(c1ccccc1)c1ccc2c3c(oc2c1)CN(CC(F)(F)F)CC3 [Example 598] | > 6.30 |
| CC(=O)NCCC1NCCc2c1oc1ccc(S(=O)(=O)c3cccc(F)c3)cc21 (centres unmarked) [Example 532, N-(2-{6-[(3-fluorophenyl)sulfonyl]-1,2,3,4-tetrahydro[1]benzofuro[2,3-c]pyridin-1-yl}ethyl)acetamide] | 6.00 to 6.30 |
| O=S(=O)(Oc1ccc2c(c1)C1CCNCC1O2)c1cc2ccccc2o1 (centres unmarked) [Example 714] | > 6.30 |
| O=S(=O)(c1ccc(-c2ccccc2)cc1)c1ccc2c(c1)OC1CNCCC21 (centres unmarked) [Example 145] | < 6.00 |
| Cc1cccc(S(=O)(=O)c2ccc3c(c2)OC2CNCCC32)n1 (centres unmarked) [Example 328] | > 6.30 |
| O=[N+]([O-])c1ccc(S(=O)(=O)Oc2ccc3c(c2)C2CCNCC2O3)cc1 (centres unmarked) [Example 749] | < 6.00 |
| O=S(=O)(c1cc(F)cc(F)c1)c1ccc2oc3c(c2c1)CCNC3 [Example 256] | > 6.30 |
| O=S(=O)(c1cccc(F)c1)c1ccc2c3c(oc2c1)C1(CCOC1)NCC3 (single isomer, unassigned) [Example 53, 7-[(3-fluorophenyl)sulfonyl]-3,4,4′,5′-tetrahydro-2H-spiro[1-benzofuro[2,3-c]pyridine-1,3′-furan]] | > 6.30 |
| O=S(=O)(c1ccccc1)c1ccc2c3c(oc2c1)[C@@]1(CCOC1)NCC3 (single isomer, unassigned) [Example 108] | > 6.30 |
